Data: patent US9845295B2, “Triphenylethylene compounds and uses thereof” (Purdue Research Foundation, priority 2015, dated 2017)
Blank lines part the entries; values can stand above or below the compound they belong to.

Legend:
[1] = biological target: T1, recombinant human ER-α (Homo sapiens, UniProt P03372); assay: Binding affinity for recombinant human ER-α (fluorescence polarization, ES2 displacement); conditions: for IC50: read-out: binding affinities for ER-α (IC50)
T1 construct: purchased Invitrogen (Carlsbad, Calif.)
T1 sequence (P03372 1-595): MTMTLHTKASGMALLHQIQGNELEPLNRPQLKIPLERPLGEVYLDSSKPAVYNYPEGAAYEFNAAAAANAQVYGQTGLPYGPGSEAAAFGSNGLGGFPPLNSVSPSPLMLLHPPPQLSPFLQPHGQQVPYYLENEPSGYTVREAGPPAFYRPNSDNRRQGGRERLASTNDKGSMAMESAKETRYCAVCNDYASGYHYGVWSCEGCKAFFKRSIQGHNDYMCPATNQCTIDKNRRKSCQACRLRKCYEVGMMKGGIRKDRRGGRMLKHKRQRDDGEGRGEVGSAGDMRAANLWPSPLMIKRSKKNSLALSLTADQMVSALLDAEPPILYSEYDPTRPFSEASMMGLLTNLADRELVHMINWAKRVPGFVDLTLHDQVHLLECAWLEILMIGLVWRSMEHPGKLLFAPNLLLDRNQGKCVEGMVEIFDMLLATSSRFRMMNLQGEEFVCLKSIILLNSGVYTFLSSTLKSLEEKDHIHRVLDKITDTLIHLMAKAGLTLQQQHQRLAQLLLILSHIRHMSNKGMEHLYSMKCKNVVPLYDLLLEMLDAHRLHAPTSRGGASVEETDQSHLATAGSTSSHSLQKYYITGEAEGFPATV
Description: (§1) Binding Affinities for Recombinant Human ER-α and ER-β.
(§2) The binding affinities of ER-α and ER-β were determined by measuring the change of polarization value when the fluorescent estrogen ligand, ES2, was displaced by the tested compounds. Experimental procedures were consistent with the protocol provided by Invitrogen. The fluorescent estrogen ligand, ES2, was provided in methanol/water (4:1, v/v) with the concentration of 1800 nM. Recombinant human ER-α and ER-β were provided in buffer (50 mM bis-tris propane, 400 mM KCl, 2 mM DTT, 1 mM EDTA and 10% glycerol), with the concentration of 734 nM and 3800 nM, respectively. All tested samples were dissolved in either methanol or DMSO. The sample solutions (1 pt) were mixed well with 49 pt of ES2 screening buffer (100 mM potassium phosphate, 100 μg/mL BGG and 0.02% NaN3). The ER-α/ES2 complex was prepared with the fluorescent estrogen ligand ES2, human recombinant ER and ES2 screening buffer with the concentrations of 9 nM ES2 and 30 nM ER-α. The ER-β/ES2 complex was prepared with the fluorescent estrogen ligand ES2, human recombinant ER-β and ES2 screening buffer with the concentrations of 9 nM ES2 and 20 nM ER-ft Reactions were initiated by adding ER/ES2 complex (50 μL) to bring the incubation volume to 100 μL and incubated for 2 h avoiding light. […] Excitation-emission wavelengths for fluorescence polarization were […]. The polarization values in the presence of the test competitors were compared with those in control, in which the competitor was replaced with vehicle. The extent of competition was expressed as the percentage of remaining polarization compared to the control.

[2] = biological target: T2, recombinant human aromatase (CYP19) (Homo sapiens, UniProt P11511); assay: Inhibition of recombinant human aromatase (CYP19) by microsomal incubations (MFC fluorometric substrate); format: biochemical; conditions: for aromatase percent inhibition: at 50000 nM compound, 50 µM; for times more potent than 7 against aromatase: ratio of IC50 values vs compound 7
T2 construct: purchased BD Biosciences (San Jose, Calif.)
T2 sequence (P11511 1-503): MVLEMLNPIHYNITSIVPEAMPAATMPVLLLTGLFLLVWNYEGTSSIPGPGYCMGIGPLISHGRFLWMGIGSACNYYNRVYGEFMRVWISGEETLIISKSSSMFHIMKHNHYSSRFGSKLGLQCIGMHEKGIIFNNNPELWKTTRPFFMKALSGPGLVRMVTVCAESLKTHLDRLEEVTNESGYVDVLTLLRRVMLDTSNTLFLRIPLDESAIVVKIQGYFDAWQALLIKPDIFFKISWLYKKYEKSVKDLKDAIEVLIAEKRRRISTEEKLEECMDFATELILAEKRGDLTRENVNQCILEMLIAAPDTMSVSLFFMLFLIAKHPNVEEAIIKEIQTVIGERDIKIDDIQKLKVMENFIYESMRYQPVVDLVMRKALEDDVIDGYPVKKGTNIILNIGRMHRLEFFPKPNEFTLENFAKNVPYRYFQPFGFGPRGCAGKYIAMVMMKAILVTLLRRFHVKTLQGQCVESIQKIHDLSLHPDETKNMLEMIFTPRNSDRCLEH
Description: Inhibition of Recombinant Human Aromatase (CYP19) by Microsomal Incubations.
All tested samples were dissolved in either methanol or DMSO. […] All the reactions were stopped by adding 0.1 M tris base dissolved in acetonitrile (75 μL). […] The extent of enzyme inhibition was expressed as the percentage of remaining enzyme activity compared to the control.

[3] = biological target: T3, recombinant human ER-β (Homo sapiens, UniProt Q92731); assay: Binding affinity for recombinant human ER-β (fluorescence polarization, ES2 displacement); conditions: for inhibition at 100 µM: 2 h, at 100000 nM compound, read-out: ER-β percent competition; for IC50: read-out: binding affinities for ER-β (IC50)
T3 construct: purchased Invitrogen (Carlsbad, Calif.)
T3 sequence (Q92731 whole entry): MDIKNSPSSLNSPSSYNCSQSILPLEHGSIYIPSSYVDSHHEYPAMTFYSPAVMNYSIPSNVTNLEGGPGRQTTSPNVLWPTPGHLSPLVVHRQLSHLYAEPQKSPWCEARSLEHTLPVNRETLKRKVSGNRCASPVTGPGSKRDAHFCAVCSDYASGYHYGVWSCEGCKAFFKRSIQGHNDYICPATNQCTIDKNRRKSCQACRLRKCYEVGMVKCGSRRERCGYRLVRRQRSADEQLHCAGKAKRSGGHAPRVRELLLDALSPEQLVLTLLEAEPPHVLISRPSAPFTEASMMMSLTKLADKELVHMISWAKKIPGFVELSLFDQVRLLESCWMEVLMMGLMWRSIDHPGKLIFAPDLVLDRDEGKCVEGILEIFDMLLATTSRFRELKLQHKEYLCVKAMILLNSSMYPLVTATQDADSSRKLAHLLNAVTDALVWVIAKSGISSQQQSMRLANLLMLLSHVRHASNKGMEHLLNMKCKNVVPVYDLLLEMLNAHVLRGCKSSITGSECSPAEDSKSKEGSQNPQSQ
Description: as §1, §2

[4] = Table 2, determined for compounds with inhibition higher than 90%
[5] = Table 1, determined only for compounds with >90% competition
[6] = Table 1, mean of at least three experiments

ER-α percent competition ([1]; Table 2, at 100000 nM compound): 19% competition
aromatase percent inhibition ([2]; Table 2): 75 % inhibition
inhibition at 100 µM ([3]; Table 2): 55%
SMILES: CC(=C(c1ccc(O)cc1)c1ccc(O)cc1)c1ccc([N+](=O)[O-])cc1 [Compound 37a, 4-(1-(4-Hydroxyphenyl)-2-(4-nitrophenyl)prop-1-enyl)phenol]

EC50 ([1]; Table 2): 0.0721 ± 0.0426 µM
IC50 [2, 4]: 0.0622 ± 0.0078 µM
times more potent than 7 against aromatase [2]: ~400 times
EC50 ([3]; Table 2): 0.0708 ± 0.0052 µM
SMILES: CCC(=C(c1ccc(N)cc1)c1ccc(N)cc1)c1ccc([N+](=O)[O-])cc1 [Compound 37d, 4-(1-(4-Aminophenyl)-2-(4-nitrophenyl)but-1-enyl)benzenamine]

ER-α percent competition ([1]; Table 2, at 100000 nM compound): 31% competition
IC50 [2, 4]: 0.177 ± 0.0202 µM
inhibition at 100 µM ([3]; Table 2): 77%
SMILES: CC(=C(c1ccc(N)cc1)c1ccc(N)cc1)c1ccc(N)cc1 [Compound 38c, 4-(1,2-Bis(4-aminophenyl)prop-1-enyl)benzenamine]

ER-α percent competition ([1]; Table 1, at 100 μM compound): 0% competition
IC50 [2, 6]: 14.2 ± 1.1 µM
SMILES: Oc1ccc(C(=C(Cn2cnnc2)c2ccc(O)c(F)c2)c2ccc(O)cc2)cc1 [Compound 20b, 4,4′-(2-(3-Fluoro-4-hydroxyphenyl)-3-(4H-1,2,4-triazol-4-yl)prop-1-ene-1,1-diyl)diphenol]

EC50 [1, 5]: 0.0852 ± 0.0142 µM
IC50 [1]: 0.0852 to 0.0978 µM
IC50 [2, 6]: 0.0944 ± 0.0035 µM
EC50 [3, 5]: 0.0563 ± 0.0178 µM
IC50 [3]: 0.0563 to 0.0736 µM
SMILES: Oc1ccc(C(=C(Cn2ccnc2)c2ccc(O)c(F)c2)c2ccc(O)cc2)cc1 [Compound 18b, 4,4′-(2-(3-Fluoro-4-hydroxyphenyl)-3-(1H-imidazol-1-yl)prop-1-ene-1,1-diyl)diphenol]

EC50 [1, 5]: 0.943 ± 0.285 µM
IC50 [2, 6]: 12.5 ± 0.4 µM
EC50 [3, 5]: 1.08 ± 0.1 µM
SMILES: Oc1ccc(C(Cn2cnnc2)=C(c2ccc(O)cc2)c2ccc(O)cc2)cc1 [Compound 20a, 4,4′,4″-(3-(4H-1,2,4-Triazol-4-yl)prop-1-ene-1,1,2-triyl)triphenol]

ER-α percent competition ([1]; Table 2, at 100000 nM compound): 40% competition
aromatase percent inhibition ([2]; Table 2): 78 % inhibition
inhibition at 100 µM ([3]; Table 2): 66%
SMILES: CCC(=C(c1ccc(O)cc1)c1ccc(O)cc1)c1ccc([N+](=O)[O-])cc1 [Compound 37b, 4-(1-(4-Hydroxyphenyl)-2-(4-nitrophenyl)but-1-enyl)phenol]

EC50 ([1]; Table 2): 11 ± 0.827 µM
IC50 [2, 4]: 0.23 µM
EC50 ([3]; Table 2): 0.857 ± 0.389 µM
SMILES: CC(=C(c1ccc(O)cc1)c1ccc(O)cc1)c1ccc(N)cc1 [Compound 38a, 4-(2-(4-Aminophenyl)-1-(4-hydroxyphenyl)prop-1-enyl)phenol]

ER-α percent competition ([1]; Table 1, at 100 μM compound): 0% competition
IC50 [2, 6]: 15.2 ± 0.3 µM
SMILES: N#CCC(=C(c1ccc(O)cc1)c1ccc(O)cc1)c1ccc(O)cc1 [Compound 17a, 3,4,4-Tris(4-hydroxyphenyl)but-3-enenitrile]

EC50 ([1]; Table 2): 0.213 ± 0.0537 µM
IC50 [2, 4]: 0.221 µM
times more potent than 7 against aromatase [2]: about 113 times
EC50 ([3]; Table 2): 0.486 ± 0.24 µM
SMILES: CC(=C(c1ccc(N)cc1)c1ccc(N)cc1)c1ccc([N+](=O)[O-])cc1 [Compound 37c, 4-(1-(4-Aminophenyl)-2-(4-nitrophenyl)prop-1-enyl)benzenamine]

ER-α percent competition ([1]; Table 1, at 100 μM compound): 45% competition
IC50 [2, 6]: 3.03 ± 0.15 µM
SMILES: Oc1ccc(C(Cn2cncn2)=C(c2ccc(O)cc2)c2ccc(O)cc2)cc1 [Compound 19a, 4,4′,4″-(3-(1H-1,2,4-Triazol-1-yl)prop-1-ene-1,1,2-triyl)triphenol]

EC50 [1, 5]: 0.0978 ± 0.0423 µM
IC50 [1]: 0.0852 to 0.0978 µM
IC50 [2, 6]: 0.06 ± 0.0041 µM
EC50 [3, 5]: 0.0736 ± 0.0299 µM
IC50 [3]: 0.0563 to 0.0736 µM
SMILES: Oc1ccc(C(Cn2ccnc2)=C(c2ccc(O)cc2)c2ccc(O)cc2)cc1 [Compound 18a, 4,4′,4″-(3-(1H-Imidazol-1-yl)prop-1-ene-1,1,2-triyl)triphenol]

ER-α percent competition ([1]; Table 2, at 100000 nM compound): 25% competition
IC50 [2, 4]: 0.0134 ± 0.003 µM
inhibition at 100 µM ([3]; Table 2): 76%
SMILES: CCC(=C(c1ccc(N)cc1)c1ccc(N)cc1)c1ccc(N)cc1 [Compound 38d, 4-(1,2-Bis(4-aminophenyl)but-1-enyl)benzenamine]

EC50 ([1]; Table 2): 1.71 ± 0.63 µM
IC50 [2, 4]: 0.0088 µM
EC50 ([3]; Table 2): 1.26 ± 0.424 µM
SMILES: CCC(=C(c1ccc(O)cc1)c1ccc(O)cc1)c1ccc(N)cc1 [Compound 38b, 4-(2-(4-Aminophenyl)-1-(4-hydroxyphenyl)but-1-enyl)phenol]

ER-α percent competition ([1]; Table 1, at 100 μM compound): 0% competition
melting point: 180 to 183 °C
IC50 [2, 6]: 17.2 ± 2.2 µM
SMILES: N#CCC(=C(c1ccc(O)cc1)c1ccc(O)cc1)c1ccc(O)c(F)c1 [Compound 17b, 3-(3-Fluoro-4-hydroxyphenyl)-4,4-bis(4-hydroxyphenyl)but-3-enenitrile]

ER-α percent competition ([1]; Table 1, at 100 μM compound): 2% competition
IC50 [2, 6]: 2.98 ± 0.05 µM
SMILES: Oc1ccc(C(=C(Cn2cncn2)c2ccc(O)c(F)c2)c2ccc(O)cc2)cc1 [Compound 19b, 4,4′-(2-(3-Fluoro-4-hydroxyphenyl)-3-(1H-1,2,4-triazol-1-yl)prop-1-ene-1,1-diyl)diphenol]

Continued, compound first:

SMILES: Nc1ccc(C(Cn2ccnc2)=C(c2ccc(O)cc2)c2ccc(O)cc2)cc1 [Compound 26, 4,4′-(2-(4-Aminophenyl)-3-(1H-imidazol-1-yl)prop-1-ene-1,1-diyl)diphenol]
EC50 [1, 5]: 1.83 ± 0.91 µM
IC50 [2, 6]: 0.00524 ± 0.00041 µM
EC50 [3, 5]: 0.296 ± 0.154 µM

SMILES: Nc1cccc(C(Cn2ccnc2)=C(c2ccc(O)cc2)c2ccc(O)cc2)c1 [Compound 35, 4,4′-(2-(3-Aminophenyl)-3-(1H-imidazol-1-yl)prop-1-ene-1,1-diyl)diphenol]
ER-α percent competition ([1]; Table 1, at 100 μM compound): 60% competition
IC50 [2, 6]: 0.439 ± 0.016 µM

SMILES: N#CCC(=C(c1ccc(O)cc1)c1ccc(O)cc1)c1ccc(N)cc1 [Compound 25, 3-(4-Aminophenyl)-4,4-bis(4-hydroxyphenyl)but-3-enenitrile]
ER-α percent competition ([1]; Table 1, at 100 μM compound): 0% competition
melting point: 235 to 238 °C
IC50 [2, 6]: 0.0363 ± 0.0008 µM

SMILES: Nc1ccc(C(Cn2cncn2)=C(c2ccc(O)cc2)c2ccc(O)cc2)cc1 [Compound 27, 4,4′-(2-(4-Aminophenyl)-3-(1H-1,2,4-triazol-1-yl)prop-1-ene-1,1-diyl)diphenol]
ER-α percent competition ([1]; Table 1, at 100 μM compound): 0% competition
IC50 [2, 6]: 0.104 ± 0.009 µM

SMILES: Nc1ccc(C(Cn2cnnc2)=C(c2ccc(O)cc2)c2ccc(O)cc2)cc1 [Compound 28, 4,4′-(2-(4-Aminophenyl)-3-(4H-1,2,4-triazol-4-yl)prop-1-ene-1,1-diyl)diphenol]
ER-α percent competition ([1]; Table 1, at 100 μM compound): 13% competition
IC50 [2, 6]: 0.0177 ± 0.0012 µM

SMILES: Oc1ccc(C(=C(Cn2ccnc2)c2cccc(O)c2)c2ccc(O)cc2)cc1 [Compound 32, 4,4′-(2-(3-Hydroxyphenyl)-3-(1H-imidazol-1-yl)prop-1-ene-1,1-diyl)diphenol]
ER-α percent competition ([1]; Table 1, at 100 μM compound): 0% competition
IC50 [2, 6]: 0.0604 ± 0.0017 µM

SMILES: N#CCC(=C(c1ccc(O)cc1)c1ccc(O)cc1)c1ccccc1 [Compound 11, 4,4-Bis(4-hydroxyphenyl)-3-phenylbut-3-enenitrile]
ER-α percent competition ([1]; Table 1, at 100 μM compound): 56% competition
melting point: 198 to 200 °C
IC50 [2, 6]: 12.8 µM
